Results reported in patent US20240132522A1, “HETEROCYCLIC COMPOUNDS AND METHODS OF USE THEREOF” (1cBio, Inc., priority 2022, published 2024).
pIC50: −log10 of the molar value. Structures can show the parent of a compound that is named as a salt.

What was measured:
recombinant human PARP1 = recombinant human PARP1 (Homo sapiens, UniProt P09874); assay: PARP1 fluorescence polarization binding assay; details: binding IC50, GST-tagged PARP1 20 nM, PARPi-FL probe 3 nM, 4 h at RT
Protocol: In some embodiments, the biological assay is described in the Examples herein. In some embodiments, the biological assay measures PARP-1 binding by way of fluorescence polarization measurements. In some embodiments, binding of a test compound to recombinant human PARP-1 reduces the amount of binding of a fluorescent probe, and consequently reduces the detected level of fluorescence polarization. In some test compound stock solutions are prepared in a solvent, e.g., DMSO, and are serially diluted into a range of concentrations, e.g., 15 concentrations, 14 concentrations, 13 concentrations, 12 concentrations, 11 concentrations, 10 concentrations, 9 concentrations, 8 concentrations, 7 concentrations, 6 concentrations, or 5 concentrations, by a dilution factor, e.g., a 10-fold dilution factor, a 9-fold dilution factor, an 8-fold dilution factor, a 7-fold dilution factor, a 6-fold dilution factor, a 5-fold dilution factor, a 4-fold dilution factor, a 3-fold dilution factor, or a 2-fold dilution factor. In some embodiments, the serial dilutions, e.g., 100 nL of serial dilution, 90 nL of serial dilution, 80 nL of serial dilution, 70 nL of serial dilution, 60 nL of serial dilution, 50 nL of serial dilution, 30 nL of serial dilution, 20 nL of serial dilution, or 10 nL of serial dilution, are added to a multi-welled plate, e.g., a 1536-well plate, a 384-well plate, or a 96-well plate. In some embodiments, PARP-1, e.g., GST-tagged PARP-1, is diluted in assay buffer, e.g., 50 μL of assay buffer, 40 μL of assay buffer, e.g., 30 μL of assay buffer, 20 μL of assay buffer, 10 μL of assay buffer, or 5 μL of assay buffer, and is added to the plate. In some embodiments, the plate is centrifuged, e.g., at 1000 rpm for 1 min, and incubated, e.g., incubated for 30 minutes at room temperature (RT). In some embodiments, a fluorescent probe, e.g., 10 μL of 6 nM PARPi-FL (TOCRIS, Cat #6461), is diluted in an assay buffer and is added to the plate. In some embodiments, the final concentrations of PARP-1 and fluorescent probe are 20 nM and 3 nM, respectively, in a total volume of 20 μL. In some embodiments, the plate is centrifuged, e.g., at 1000 rpm for 1 minute, and the assay plate is incubated, e.g., for 4 h at RT. In some embodiments, the samples in each well are read using a plate reader, e.g., an Envision instrument using excitation=480 nm, and emission wavelength=FITC FP-P pol 535 nm & FITC FP-S pol 535 nm). In some embodiments, percent inhibition is calculated from mP values using Inhibition (%)=[1−(mPc−mPL)/(mPH−mPL)]×100%, where mPc, mPL, and mPH are the mP values of test compound, Low controls, and High controls, respectively. In some embodiments, binding IC50 values are calculated using XLFit (equation 201: y=A+((B−A)/(1+((x/C)^D))), where A=bottom, B=top, C=IC50, and D=slope) with a floating top and bottom for curves.
Compounds of the present disclosure were tested in a PARP1 fluorescence polarization binding assay at Pharmaron (Beijing, P.R. China). In this biochemical assay, binding of test compound to recombinant human PARP1 reduces the amount of binding of a fluorescent probe, and consequently reduces the detected level of fluorescence polarization. Test compound stock solutions were prepared in DMSO and then serially diluted into 10 concentrations by 3-fold dilution in a 384-well plate using a TECAN EVO200. 60 nL of each dilution was transferred to the plate using an Echo550 (Labcyte), and then 10 μL 40 nM GST-tagged PARP1 (BPS Bioscience, Cat #80501), diluted in assay buffer (50 mM Tris pH 8.0, 0.001% Triton X-100, 10 mM MgCl2, 150 mM NaCl), was added to the plate. After a centrifugation at 1000 rpm for 1 min, the assay plate was incubated for 30 min at RT. 10 μL 6 nM PARPi-FL (TOCRIS, Cat #6461), diluted using assay buffer, was then added to the plate. The final concentrations of PARP1 and PARPi-FL were 20 nM and 3 nM, respectively, in a total volume of 20 μL. […]

[1] = system: DLD-1 BRCA2(−/−) colorectal adenocarcinoma cells; assay: Cell viability assay (Cell Titer-Glo), DLD-1 BRCA2(−/−); assay type: cell-based; details: Homo sapiens, DLD-1, 168 h, 7 days, 200 cells/well
Excerpt: (§1) In some embodiments, the biological assay measures the effects that compounds of the present disclosure may have on the viability of cells, e.g., the viability of cancer cells. In some embodiments, DLD-1 wild-type and DLD-1 BRCA2(−/−) colorectal adenocarcinoma cells, an isogenic pair of cell lines differing in the presence and absence, respectively, of both BRCA2 alleles, are used to measure the effect of the disclosed compounds on the viability of cancer cells.
(§2) In some embodiments, the cells are harvested during the logarithmic growth period, counted, and seeded at a specified count in the wells of a 96- or 384-well cell culture plate. In some embodiments, after seeding, the cells are incubated, e.g., at 37° C., 5% CO2 overnight. In some embodiments, the cells are treated with compounds, e.g., with serially diluted test compounds at 8-11 concentrations within a desired concentration range, e.g., from 1 nM-10 μM, for the generation of dose-response curves. In some embodiments, the plate is further incubated, e.g., for another 3-7 days in a humidified incubator at 37° C. and 5% CO2. In some embodiments, cell viability is assessed by luminescence measurement after addition of Cell Titer-Glo reagent (Promega, Madison, Wis.) according to the manufacturer's instructions. In some embodiments, cell viability IC50 values are calculated using XLFit, equation 201: y=A+((B−A)/(1+((x/C)^D))), where A=bottom, B=top, C=IC50, and D=slope. In some embodiments, the effects of the test compounds on the viability of other cell lines such as MDA-MB-436, MDA-MB-231, SUM149PT, HCC1395, and UWB1.289 are determined in an analogous method.
(§3) Compounds of the present disclosure were tested for their effects on the viability of cancer cells. DLD-1 wild-type and DLD-1 BRCA2(−/−) colorectal adenocarcinoma cells, an isogenic pair of cell lines differing in the presence and absence, respectively, of both BRCA2 alleles, were used. The cells were harvested during the logarithmic growth period, counted, and seeded at 50 cells/well for DLD-1 wild-type and 200 cells/well for DLD-1 BRCA2(−/−) in a 384-well cell culture plate. After seeding, cells were incubated at 37° C., 5% CO2 overnight. Cells were treated with serially diluted test compounds at 10 concentrations from 1.5 nM-30 μM) for generation of dose response curves. The plate was further incubated for another 7 days in a humidified incubator at 37° C. and 5% CO2. Cell viability was assessed by luminescence measurement after addition of Cell Titer-Glo reagent (Promega, Madison, Wis.) according to the manufacturer's instructions. Cell viability IC50 values were calculated using XLFit, equation 201: y=A+((B−A)/(1+((x/C)^D))), where A=bottom, B=top, C=IC50, and D=slope. IC50 values are shown in Table B and are presented in ranges, in which “+++”<300 nM, 300 nM≤“++”<3000 nM, and “+”≥3000 nM. Effects of the test compounds on the viability of other cell lines such as MDA-MB-436, MDA-MB-231, SUM149PT, HCC1395, and UWB1.289 are determined in an analogous method.

[2] = system: DLD-1 wild-type colorectal adenocarcinoma cells; assay: Cell viability assay (Cell Titer-Glo), DLD-1 wild-type; assay type: cell-based; details: Homo sapiens, DLD-1, 168 h, 7 days, 50 cells/well
Excerpt: as §1, §2, §3

recombinant human PARP1, sequence (P09874 whole entry): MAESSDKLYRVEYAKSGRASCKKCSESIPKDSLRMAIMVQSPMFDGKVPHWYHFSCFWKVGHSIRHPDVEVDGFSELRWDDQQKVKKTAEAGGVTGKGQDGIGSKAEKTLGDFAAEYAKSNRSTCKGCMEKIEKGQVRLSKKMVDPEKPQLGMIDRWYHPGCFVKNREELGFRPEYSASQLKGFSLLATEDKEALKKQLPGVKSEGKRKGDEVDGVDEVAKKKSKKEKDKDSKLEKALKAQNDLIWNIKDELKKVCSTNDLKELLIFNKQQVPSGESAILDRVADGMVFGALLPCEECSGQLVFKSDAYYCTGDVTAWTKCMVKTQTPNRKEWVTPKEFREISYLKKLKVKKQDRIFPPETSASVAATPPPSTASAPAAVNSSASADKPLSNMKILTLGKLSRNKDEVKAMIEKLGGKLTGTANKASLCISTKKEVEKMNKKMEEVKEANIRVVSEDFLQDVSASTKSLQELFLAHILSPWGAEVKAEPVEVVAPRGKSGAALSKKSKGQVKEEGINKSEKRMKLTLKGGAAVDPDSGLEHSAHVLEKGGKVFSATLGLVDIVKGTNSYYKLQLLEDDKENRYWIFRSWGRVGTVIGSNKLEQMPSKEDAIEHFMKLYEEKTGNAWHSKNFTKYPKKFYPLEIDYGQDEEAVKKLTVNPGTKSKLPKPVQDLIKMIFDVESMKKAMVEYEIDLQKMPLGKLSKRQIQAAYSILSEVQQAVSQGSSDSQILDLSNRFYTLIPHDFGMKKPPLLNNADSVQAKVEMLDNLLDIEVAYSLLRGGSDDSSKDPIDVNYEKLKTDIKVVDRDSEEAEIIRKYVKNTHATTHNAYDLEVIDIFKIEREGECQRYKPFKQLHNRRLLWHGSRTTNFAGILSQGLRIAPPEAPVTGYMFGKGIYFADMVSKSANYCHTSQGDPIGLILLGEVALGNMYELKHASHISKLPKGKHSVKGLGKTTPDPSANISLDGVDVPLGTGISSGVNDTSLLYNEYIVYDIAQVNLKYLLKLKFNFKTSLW

## CCc1cc2ncc(CN3C4CCC3CN(c3ccc(C(=O)NC)nc3)C4)cc2[nH]c1=O [Compound No. 3, 5-(8-((7-ethyl-6-oxo-5,6-dihydro-1,5-naphthyridin-3-yl)methyl)-3,8-diazabicyclo[3.2.1]octan-3-yl)-N-methylpicolinamide]
Recombinant human PARP1
  pIC50: > 7.00
[1]
  pIC50: 5.52 to 6.52
[2]
  pIC50: ≤ 5.52

## CCc1cc2ncc(CN3CC4(C3)CN(C(=O)c3ccc(F)cc3F)C4)cc2[nH]c1=O [Compound No. 181, 7-({6-[(2,4-difluorophenyl)carbonyl]-2,6-diazaspiro[3.3]heptan-2-yl}methyl)-3-ethyl-1H-1,5-naphthyridin-2-one formate]
Recombinant human PARP1
  pIC50: ≤ 5.52
[1]
  pIC50: ≤ 5.52
[2]
  pIC50: ≤ 5.52

## CCc1cc2ncc(CN3CC4(C3)CN(c3ccc(C(=O)NC)nc3C)C4)cc2[nH]c1=O [Compound No. 139, 5-(6-((7-ethyl-6-oxo-5,6-dihydro-1,5-naphthyridin-3-yl)methyl)-2,6-diazaspiro[3.3]heptan-2-yl)-N,6-dimethylpicolinamide formate]
Recombinant human PARP1
  pIC50: 5.52 to 7.00
[1]
  pIC50: ≤ 5.52
[2]
  pIC50: ≤ 5.52

## CCc1cc2ncc(CN3CC4CCC(C3)N4c3ccc(C(=O)NC)nc3)cc2[nH]c1=O [Compound No. 8, 5-(3-((7-ethyl-6-oxo-5,6-dihydro-1,5-naphthyridin-3-yl)methyl)-3,8-diazabicyclo[3.2.1]octan-8-yl)-N-methylpicolinamide]
Recombinant human PARP1
  pIC50: 5.52 to 7.00
[1]
  pIC50: ≤ 5.52
[2]
  pIC50: ≤ 5.52
